How the values were obtained:
[1] = tested on: AP-1 induced transcriptional activity; assay: Cellular Transrepressional Assay (AP-1 luciferase reporter in A549 cells, PMA-activated); format: cell-based; details: Homo sapiens, A549, 7 h, pAP-1-Luc, 10 ng/ml PMA, read-out: AP-1 (EC50, nM) (Cellular Transrepression Assay)
Method in brief: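 A549 cells stably carrying a 7×AP-1-luciferase reporter, stimulated with 10 ng/ml PMA with or without compound (0.1 nM-40 μM) for 7 h. Luciferase luminescence read 10 min after reagent addition; repression is percentage decrease of PMA-alone signal, EC50 by curve fitting.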

[2] = molecular target: T1, human full-length glucocorticoid receptor (Homo sapiens, UniProt P04150); assay: Glucocorticoid Receptor Binding Assay (II), fluorescence polarization competitor kit (Fluormone GS1); details: cell lysate with recombinant human full-length GR
T1 construct: recombinantly expressed human full-length glucocorticoid receptor; purchased PanVera Co., Madison, Wis; P2816
T1 sequence (P04150 1-777): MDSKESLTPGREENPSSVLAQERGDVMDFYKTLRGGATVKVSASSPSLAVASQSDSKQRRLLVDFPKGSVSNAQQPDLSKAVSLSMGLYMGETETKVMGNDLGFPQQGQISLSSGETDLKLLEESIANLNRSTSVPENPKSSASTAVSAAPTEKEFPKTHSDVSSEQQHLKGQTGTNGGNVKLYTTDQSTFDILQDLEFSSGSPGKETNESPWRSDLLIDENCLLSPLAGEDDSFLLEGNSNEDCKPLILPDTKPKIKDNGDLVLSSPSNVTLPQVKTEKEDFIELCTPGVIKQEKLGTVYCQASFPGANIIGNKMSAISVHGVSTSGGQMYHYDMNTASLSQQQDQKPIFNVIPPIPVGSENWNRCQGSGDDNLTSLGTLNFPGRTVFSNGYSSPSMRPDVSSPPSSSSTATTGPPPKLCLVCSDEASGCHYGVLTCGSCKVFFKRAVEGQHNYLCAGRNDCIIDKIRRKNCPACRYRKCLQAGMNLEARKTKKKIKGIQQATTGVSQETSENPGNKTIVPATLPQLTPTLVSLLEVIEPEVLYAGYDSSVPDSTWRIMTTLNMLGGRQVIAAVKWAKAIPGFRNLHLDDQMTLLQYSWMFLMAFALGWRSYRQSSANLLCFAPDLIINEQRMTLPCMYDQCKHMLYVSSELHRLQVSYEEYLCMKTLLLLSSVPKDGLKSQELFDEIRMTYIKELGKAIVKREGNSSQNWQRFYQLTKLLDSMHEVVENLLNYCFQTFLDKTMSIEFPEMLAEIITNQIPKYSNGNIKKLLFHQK
Protocol: In order to measure the binding of compounds on the glucocorticoid receptor a commercially available kit was used (Glucocorticoid receptor competitor assay kit, PanVera Co., Madison, Wis., P2816). Briefly, a cell lysate containing recombinantly expressed human full-length glucocorticoid receptor was mixed with a fluorescently labeled glucocorticoid (1 nM Fluormone GS1) in the presence or absence of test compound. After one hour at room temperature, the fluorescence polarization (FP) of the samples were measured. […] Test molecules were analyzed in the concentration range from 2.4 nM to 40 microMolar.

Compound	EC50 [1]	Ki [2]
CC(C)(CNC(=O)CC(F)(F)F)[C@H](c1ccccc1)c1ccc2[nH]ncc2c1 [(R)-82, (R)-N-(3-(1H-indazol-5-yl)-2,2-dimethyl-3-phenylpropyl)-3,3,3-trifluoropropanamide]	> 10000 nM	628 nM
CC(C)(CNC(=O)CC(F)(F)F)[C@@H](c1ccccc1)c1ccc2[nH]ncc2c1 [(S)-82, (S)-N-(3-(1H-indazol-5-yl)-2,2-dimethyl-3-phenylpropyl)-3,3,3-trifluoropropanamide]	> 10000 nM	39 nM
CC(C)(CNS(=O)(=O)CC(F)(F)F)[C@@H](c1ccccc1)c1ccc2[nH]ncc2c1 [(S)-83, (S)-N-(3-(1H-indazol-5-yl)-2,2-dimethyl-3-phenylpropyl)-2,2,2-trifluoroethanesulfonamide]	> 10000 nM	34 nM
CC(C)(CNC(=O)C(F)(F)C(F)(F)F)[C@@H](c1ccccc1)c1ccc2c(cnn2-c2ccc(F)cc2)c1 [Example 19, (S)-2,2,3,3,3-pentafluoro-N-(3-(1-(4-fluorophenyl)-1H-indazol-5-yl)-2,2-dimethyl-3-phenylpropyl)propanamide]	> 10000 nM	11 nM
CC(C)(CNC(=O)C(=O)O)[C@H](c1ccccc1)c1ccc2c(cnn2-c2ccc(F)cc2)c1 [Example 24, (R)-2-(3-(1-(4-fluorophenyl)-1H-indazol-5-yl)-2,2-dimethyl-3-phenylpropylamino)-2-oxoacetic acid]	> 10000 nM	351 nM
CC(C)CC(c1ccc2c(cnn2-c2ccc(F)cc2)c1)C(C)(C)CNC(=O)C(F)(F)F (stereo not drawn) [Example 25, 2,2,2-trifluoro-N-(3-(1-(4-fluorophenyl)-1H-indazol-5-yl)-2,2,5-trimethylhexyl)acetamide]	> 10000 nM	8.2 nM
CC(C)CC(c1ccc2c(cnn2-c2ccc(F)cc2)c1)C(C)(C)CNC(=O)NC(C)(C)CN1CCOCC1 (stereo not drawn) [Example 33, 1-(3-(1-(4-fluorophenyl)-1H-indazol-5-yl)-2,2,5-trimethylhexyl)-3-(2-methyl-1-morpholinopropan-2-yl)urea]	> 10000 nM	74 nM
Cn1ncc2cc([C@H](c3ccccc3)C(C)(C)CNC(=O)CC(F)(F)F)ccc21 [Example 84, (S)—N-(2,2-Dimethyl-3-(1-methyl-1H-indazol-5-yl)-3-phenylpropyl)-3,3,3-trifluoropropanamide]	> 10000 nM	115 nM
Cn1ncc2cc([C@H](c3ccccc3)C(C)(C)CNS(=O)(=O)CC(F)(F)F)ccc21 [Example 85, (S)—N-(2,2-Dimethyl-3-(1-methyl-1H-indazol-5-yl)-3-phenylpropyl)-2,2,2-trifluoroethanesulfonamide]	> 10000 nM	2890 nM
CC(C)n1ncc2cc([C@H](c3ccccc3)C(C)(C)CNC(=O)CC(F)(F)F)ccc21 [Example 86, (S)—N-(2,2-Dimethyl-3-(1-isopropyl-1H-indazol-5-yl)-3-phenylpropyl)-3,3,3-trifluoropropanamide]	> 10000 nM	13 nM

More lines, now with the values ahead:

EC50 [1]	Ki [2]	Compound
> 10000 nM	547 nM	CC(C)(CNS(=O)(=O)CC(F)(F)F)C(c1ccccc1)c1ccc2[nH]ncc2c1 (stereo in doubt) [(R)-83, (S)-N-(3-(1H-indazol-5-yl)-2,2-dimethyl-3-phenylpropyl)-2,2,2-trifluoroethanesulfonamide]
61 nM	7.4 nM	CC(C)(CNC(=O)C(F)(F)F)[C@H](c1ccccc1)c1ccc2c(cnn2-c2ccc(F)cc2)c1 [(R)-16, (R)-2,2,2-trifluoro-N-(3-(1-(4-fluorophenyl)-1H-indazol-5-yl)-2,2-dimethyl-3-phenylpropyl)acetamide]
99 nM	12 nM	CC(C)(CNC(=O)CC(F)(F)F)[C@H](c1ccccc1)c1ccc2c(cnn2-c2ccc(F)cc2)c1 [(R)-17, (R)-3,3,3-trifluoro-N-(3-(1-(4-fluorophenyl)-1H-indazol-5-yl)-2,2-dimethyl-3-phenylpropyl)-propanamide]
1280 nM	8.3 nM	CC(C)(C)CC(=O)NCC(C)(C)[C@@H](c1ccccc1)c1ccc2c(cnn2-c2ccc(F)cc2)c1 [Example 1, (S)-N-(3-(1-(4-fluorophenyl)-1H-indazol-5-yl)-2,2-dimethyl-3-phenylpropyl)-3,3-dimethylbutanamide]
47 nM	4.9 nM	CC(C)(CNS(C)(=O)=O)[C@@H](c1ccccc1)c1ccc2c(cnn2-c2ccc(F)cc2)c1 [Example 6, (S)-N-(3-(1-(4-fluorophenyl)-1H-indazol-5-yl)-2,2-dimethyl-3-phenylpropyl)methanesulfonamide]
139 nM	6.1 nM	CC(C)S(=O)(=O)NCC(C)(C)[C@@H](c1ccccc1)c1ccc2c(cnn2-c2ccc(F)cc2)c1 [Example 7, (S)-N-(3-(1-(4-fluorophenyl)-1H-indazol-5-yl)-2,2-dimethyl-3-phenylpropyl)propane-2-sulfonamide]
143 nM	19 nM	CC(C)(CNC(=O)C1(C(F)(F)F)CC1)[C@@H](c1ccccc1)c1ccc2c(cnn2-c2ccc(F)cc2)c1 [Example 10, (S)-N-(3-(1-(4-fluorophenyl)-1H-indazol-5-yl)-2,2-dimethyl-3-phenylpropyl)-1-(trifluoromethyl)cyclopropanecarboxamide]
29 nM	16 nM	CCS(=O)(=O)NCC(C)(C)[C@@H](c1ccccc1)c1ccc2c(cnn2-c2ccc(F)cc2)c1 [Example 11, (S)-N-(3-(1-(4-fluorophenyl)-1H-indazol-5-yl)-2,2-dimethyl-3-phenylpropyl)ethanesulfonamide]
181 nM	19 nM	CCCS(=O)(=O)NCC(C)(C)[C@@H](c1ccccc1)c1ccc2c(cnn2-c2ccc(F)cc2)c1 [Example 13, (S)-N-(3-(1-(4-fluorophenyl)-1H-indazol-5-yl)-2,2-dimethyl-3-phenylpropyl)propane-1-sulfonamide]
266 nM	39 nM	CC(C)(CNC(=O)Cc1cccs1)[C@H](c1ccccc1)c1ccc2c(cnn2-c2ccc(F)cc2)c1 [Example 21, (R)-N-(3-(1-(4-fluorophenyl)-1H-indazol-5-yl)-2,2-dimethyl-3-phenylpropyl)-2-(thiophen-2-yl)acetamide]
679 nM	17 nM	CC(=O)NCC(C)(C)[C@H](c1ccccc1)c1ccc2c(cnn2-c2ccc(F)cc2)c1 [Example 22, (R)-N-(3-(1-(4-fluorophenyl)-1H-indazol-5-yl)-2,2-dimethyl-3-phenylpropyl)acetamide]
5960 nM	62 nM	COC(=O)C(=O)NCC(C)(C)[C@H](c1ccccc1)c1ccc2c(cnn2-c2ccc(F)cc2)c1 [Example 23, (R)-methyl 2-(3-(1-(4-fluorophenyl)-1H-indazol-5-yl)-2,2-dimethyl-3-phenylpropylamino)-2-oxoacetate]
57 nM	6.9 nM	CC(C)CC(c1ccc2c(cnn2-c2ccc(F)cc2)c1)C(C)(C)CNC(=O)CC(F)(F)F (stereo not drawn) [Example 59A, 3,3,3-trifluoro-N-(3-(1-(4-fluorophenyl)-1H-indazol-5-yl)-2,2,5-trimethylhexyl)propanamide]
371 nM	9.6 nM	CC(C)CC(c1ccc2c(cnn2-c2ccc(F)cc2)c1)C(C)(C)CNC(N)=O (stereo not drawn) [Example 61, 1-(3-(1-(4-fluorophenyl)-1H-indazol-5-yl)-2,2,5-trimethylhexyl)urea]
